Reference: patent publication US20060062862A1, “Cholesterol-reducing agent made of dietary fibre and cholesterol-reducing substances” (priority 2002, published 2006)

Tested on: Male Syrian hamsters, feed enriched with 0.35% cholesterol
Assay: Hypocholesterolemic activity of carob fiber and statins in vivo
Design: species or system Syrian hamster
Conditions: 28 days, in feed: carob fiber 2.5%, simvastatin 1.5 mg %
Excerpt: Determination of the Hypocholesterolemic Activity of Carob Fiber and Statins In Vivo Hamsters are seen as a suitable animal model for propounding the present invention, even if the metabolic processes in hamsters and humans differ slightly. At all events, the two substances tested here in combination each give alone in humans a reducing effect on the serum cholesterol values, in particular on LDL cholesterol. The effect of a combined administration of carob fiber and a statin, here simvastatin, in this model should therefore also give conclusions for humans. Male Syrian hamsters (100-120 g at the start of the study) received feed enriched with 0.35% cholesterol. […] The hamsters were divided into groups of 9 animals and treated with the test substances over a period of 28 days. After the animals were anesthetized, blood was obtained for determining the serum cholesterol values. The serum cholesterol contents were determined after obtaining the plasma from whole blood using a commercially obtained enzyme test kit. The total cholesterol content of the test groups thus determined were compared with the results of a control group which received no test substances.

Compound: CCC(C)(C)C(=O)O[C@H]1C[C@@H](C)C=C2C=C[C@H](C)[C@H](CC[C@@H]3C[C@@H](O)CC(=O)O3)[C@H]21 [Simvastatin, simvastatin]
- Total cholesterol in blood serum (0.35% cholesterol feed, control 7.65): 6.50 mmol/L
- Changes from the control in % (total serum cholesterol vs control group): 15%
